The record followed here is patent US9643967B2, “Pyrrolo[3,2-c]pyridine derivatives as TLR inhibitors” (TAKEDA PHARMACEUTICAL COMPANY LIMITED, priority 2013, dated 2017).

Each structure is given as a SMILES string. Read-outs that look alike come from different tables or passages of the source.

The assay has as its target T1, mTLR7 (Mus musculus, UniProt P58681).
T1 construct: Splenocytes isolated from male C57/BL6 mice; from tissue; host or cells: splenocytes from the spleen of male C57BL/6 mice
T1 sequence (P58681 27-1050): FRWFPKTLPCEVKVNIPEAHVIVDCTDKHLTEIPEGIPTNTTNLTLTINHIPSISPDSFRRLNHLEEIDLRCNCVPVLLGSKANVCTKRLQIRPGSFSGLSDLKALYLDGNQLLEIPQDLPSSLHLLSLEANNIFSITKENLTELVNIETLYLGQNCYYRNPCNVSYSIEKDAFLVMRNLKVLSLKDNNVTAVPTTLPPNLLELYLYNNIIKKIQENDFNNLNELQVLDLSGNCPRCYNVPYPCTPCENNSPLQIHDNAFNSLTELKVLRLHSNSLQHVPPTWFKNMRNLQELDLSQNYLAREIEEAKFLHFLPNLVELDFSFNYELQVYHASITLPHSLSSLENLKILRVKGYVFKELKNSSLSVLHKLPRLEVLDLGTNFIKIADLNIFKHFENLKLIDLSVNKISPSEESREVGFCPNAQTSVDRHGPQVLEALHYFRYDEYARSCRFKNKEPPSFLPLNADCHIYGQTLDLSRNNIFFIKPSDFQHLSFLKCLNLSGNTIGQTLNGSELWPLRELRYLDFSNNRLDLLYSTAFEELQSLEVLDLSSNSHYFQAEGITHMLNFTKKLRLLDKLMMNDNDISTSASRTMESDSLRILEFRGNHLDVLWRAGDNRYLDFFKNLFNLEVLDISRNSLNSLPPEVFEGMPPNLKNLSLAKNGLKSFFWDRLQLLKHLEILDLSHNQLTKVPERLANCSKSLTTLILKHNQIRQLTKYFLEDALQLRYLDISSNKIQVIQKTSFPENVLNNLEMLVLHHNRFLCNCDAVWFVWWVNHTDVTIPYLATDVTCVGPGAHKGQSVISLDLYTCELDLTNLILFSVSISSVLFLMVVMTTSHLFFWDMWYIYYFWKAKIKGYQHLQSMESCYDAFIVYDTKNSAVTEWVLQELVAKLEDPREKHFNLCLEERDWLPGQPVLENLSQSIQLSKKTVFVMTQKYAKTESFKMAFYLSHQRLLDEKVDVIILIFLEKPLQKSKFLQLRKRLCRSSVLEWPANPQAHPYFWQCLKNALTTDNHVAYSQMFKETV
Nature of the assay: mTLR7 antagonism (IL-6 and TNF-α release assay) in mouse splenocytes, R0006/DOTAP stimulated. The format is cell-based. The note with it: 1 μM, mouse splenocytes. The source says: mTLR9 and mTLR7 Antagonism (Cytokine Release Assay) in Mouse Splenocytes
TLR7 ligand R0006 (IDT, 5′-rU*rU*rG*rU*rU*rG*rU*rU*rG*rU*rU*rG*rU*rU*rG*rU*rU*rG*rU*rU-3′ (SEQ ID NO:1)), Liposomal transfection reagent—DOTAP (Roche, Cat. No. 11202375001), TLR9 ligand CpG ODN2006 (Sequence: T*C*G*T*C*G*T*T*T*T*G*T*C*G*T*T*T*T*G*T*C*G*T*T; *=phosphorothioate (SEQ ID NO:2)) DMSO (Sigma, D2650), RPMI Powder (Sigma, R6504), Fetal Bovine Serum (Gibco, 10270), Dulbecco's Phosphate Buffered Saline (Sigma, D1408), 96 well plate (Flat bottom, Costar 3599), ELISA kit for IL-6 (EBioscience, 88-7064-77 and TNFa (EBioscience, 88-7346-88), MACS Buffer (AutoMACS Rinsing Solution (Miltenyl Biotec, 130-091-222)+0.05% BSA), RBC lysis buffer (0.85% NH4Cl), 40 μm cell strainer (BD Falcon, 352340) Method: A. Isolation of Mouse Splenocytes
Mouse spleen was isolated from C57BL6 mouse and stored in 1× chilled PBS buffer until further processed. Spleen was transferred to a sterile petriplate and chopped in to 5-6 pieces in presence of MACS buffer (100 μl) with the help of fresh surgical blade and crushed with flat plunger of a sterile syringe. A uniform suspension was prepared by passing cells through a 40 μm cell strainer. Cells were centrifuged at 450×g for 5 minutes at 4° C., supernatant was discarded and pellet dislodged gently, resuspended in 2 ml of pre-warmed (37° C.) RBC lysis buffer at room temperature with continuous gentle mixing with 1 ml pipette. Lysis buffer was neutralized with 12 ml of chilled MACS buffer and cells were passed through 40 μm cell strainer. Cell suspension was collected in 15 ml MACS buffer and centrifuged at 450×g for 5 minutes at 4° C. Pellet was resuspended in 15 ml MACS buffer and centrifuged at 400×g for 5 minutes. Cells were resuspended in 10 ml of RPMI complete medium and viability was estimated by Trypan blue method.
mTLR7 Antagonism (IL-6 and TNF-α Release Assay):
1 mg/ml stock of R0006 was prepared in sterile, endotoxin-free water. R0006 stock was diluted 10 fold with DOTAP and incubated for 30 minutes to form liposome complex (100 μg/ml of R0006). This complex was further diluted 10 fold with incomplete RPMI media (10 μg/ml of R0006) to achieve the final agonist concentration of 1 μg/ml. DOTAP alone was diluted 10 fold in incomplete RPMI media. NCEs were added in a concentration range of 30 μM to 1 nM in respective wells of assay plate, assay medium containing 0.3% DMSO were added to control wells. 0.2 million splenocytes were added to all the wells and incubated at 37° C. in 5% CO2 incubator for 30 minutes. 1 μg/ml of respective agonist was added to all the wells except those were assigned as negative controls and mixed thoroughly. DOTAP was added to negative control wells and incubated overnight at 37° C./5% CO2. The plate was centrifuged at 450×g for 5 minutes at room temperature and the supernatant was collected. ELISA was performed as per manufacturer's protocol. S/B Ratio, % Activity and % Inhibition was calculated using MS Excel. IC50 and inhibition curve was generated using Graph Pad Prism.

Setting [1] is: IL-6 release, read-out: mTLR7 inhibitory activity (% at 1 μM), IL-6.
The mark [2] stands for this setting: TNF-α release, read-out: mTLR7 inhibitory activity (% at 1 μM), TNF-α.

Consider `CC(C)N1CCN(c2ccc(-c3nccc4[nH]c(CN5CCOCC5)cc34)cc2)CC1` [Example A1, 4-[[4-[4-(4-isopropylpiperazin-1-yl)phenyl]-1H-pyrrolo[3,2-c]pyridin-2-yl]methyl]morpholine], for which the inhibition at 1 µM by setting is: under setting [1], 97%; under setting [2], 100%.
For `CN1CCN(c2ccc(-c3nccc4[nH]c(CN5CCOCC5)cc34)cc2)CC1` [Example A2, 4-[[4-[4-(4-methylpiperazin-1-yl)phenyl]-1H-pyrrolo[3,2-c]pyridin-2-yl]methyl] morpholine], in that order: 90% and 100%.
For `CCN1CCN(c2ccc(-c3nccc4[nH]c(CN5CCOCC5)cc34)cc2)CC1` [Example A3, 4-[[4-[4-(4-ethylpiperazin-1-yl)phenyl]-1H-pyrrolo[3,2-c]pyridin-2-yl]methyl] morpholine] the same measures were 100% and 100%.
For `Cc1cc2[nH]c(CN3CCOCC3)cc2c(-c2ccc(N3CCN(C(C)C)CC3)cc2)n1` [Example A4, 4-[[4-[4-[4-isopropylpiperazin-1-yl)phenyl]-6-methyl-1H-pyrrolo[3,2-c]pyridin-2-yl]methyl] morpholine], in that order: 100% and 100%.
For the molecule `CCN1CCN(c2ccc(-c3nc(C)cc4[nH]c(CN5CCOCC5)cc34)cc2)CC1` [Example A5, 4-[[4-[4-(4-ethylpiperazin-1-yl)phenyl]-6-methyl-1H-pyrrolo[3,2-c]pyridin-2-yl]methyl] morpholine], the inhibition at 1 µM was 100% under setting [1] and 100% under setting [2].
Consider `CC(C)N1CCN(c2ccc(-c3nccc4c3cc(CN3CCOCC3)n4C)cc2)CC1` [Example A8, 4-[[4-[4-(4-isopropylpiperazin-1-yl)phenyl]-1-methyl-pyrrolo[3,2-c]pyridin-2-yl]methyl] morpholine], for which the inhibition at 1 µM under setting [1] stood at 100% and the inhibition at 1 µM under setting [2] stood at 100%.
For the molecule `CN1CCN(c2ccc(-c3nccc4c3cc(CN3CCOCC3)n4C)cc2)CC1` [Example A9, 4-[[1-methyl-4-[4-(4-methylpiperazin-1-yl)phenyl]pyrrolo[3,2-c]pyridin-2-yl]methyl] morpholine], the inhibition at 1 µM under setting [2] was 100%.
Turning to `CC(C)N1CCN(c2ccc(-c3nccc4[nH]c(CN5CCC(O)CC5)cc34)cc2)CC1` [Example A12, 1-[[4-[4-(4-isopropylpiperazin-1-yl)phenyl]-1H-pyrrolo[3,2-c]pyridin-2-yl]methyl] piperidin-4-ol], the inhibition at 1 µM was determined as 80% under setting [1] and 45% under setting [2].
For `CC(C)N1CCN(c2ccc(-c3nccc4[nH]c(CN5CCC6(CC5)CC(O)C6)cc34)cc2)CC1` [Example A13, 7-[[4-[4-(4-isopropylpiperazin-1-yl)phenyl]-1H-pyrrolo[3,2-c]pyridin-2-yl]methyl]-7-azaspiro[3.5] nonan-2-ol], in that order: 98% and 91%.
For `CC(C)N1CCN(c2ccc(-c3nccc4[nH]c(CN5CC(F)C5)cc34)cc2)CC1` [Example A16, 2-[(3-fluoroazetidin-1-yl)methyl]-4-[4-(4-isopropylpiperazin-1-yl)phenyl]-1H-pyrrolo[3,2-c]pyridine] the same measures were 100% and 99%.
Turning to `CC(C)N1CCN(c2ccc(-c3nccc4[nH]c(CN5CCCCC5)cc34)cc2)CC1` [Example A17, 4-[4-(4-isopropylpiperazin-1-yl)phenyl]-2-(1-piperidylmethyl)-1H-pyrrolo[3,2-c]pyridine], the inhibition at 1 µM is, setting by setting: under setting [1], 100%; under setting [2], 100%.
For `CC(C)N1CCN(c2ccc(-c3nccc4[nH]c(CN5CCC(F)CC5)cc34)cc2)CC1` [Example A24, 2-[(4-fluoro-1-piperidyl)methyl]-4-[4-(4-isopropylpiperazin-yl)phenyl]-1H-pyrrolo[3,2-c] pyridine], the inhibition at 1 µM under setting [2] was 100%.
Take `CN1CCN(c2ccc(-c3nccc4[nH]c(CN5CCC(F)CC5)cc34)cc2)CC1` [Example A25, 2-[(4-fluoro-1-piperidyl)methyl]-4-[4-(4-methylpiperazin-1-yl)phenyl] - 1H-pyrrolo[3,2-c]pyridine]: the inhibition at 1 µM by setting is: under setting [1], 100%; under setting [2], 100%.
As for `Cc1cc2[nH]c(Cn3cccn3)cc2c(-c2ccc(N3CCN(C(C)C)CC3)cc2)n1` [Example A28, 4-[4-(4-isopropylpiperazin-1-yl)phenyl]-6-methyl-2-(pyrazol-1-ylmethyl)-1H-pyrrolo[3,2-c]pyridine], the inhibition at 1 µM by setting is: under setting [1], 88%; under setting [2], 100%.
On to `Cc1cc2[nH]c(CN3CCC4(CC3)CC(O)C4)cc2c(-c2ccc(N3CCN(C(C)C)CC3)cc2)n1` [Example A29, 7-[[4-[4-(4-isopropylpiperazin-1-yl)phenyl]-6-methyl-1H-pyrrolo[3,2-c]pyridin-2-yl]methyl]-7-azaspiro[3.5] nonan-2-ol], for which the inhibition at 1 µM runs as follows: under setting [1], 97%; under setting [2], 82%.
For `Cc1cc2[nH]c(CN3CCC4(CC3)CC(C)C4)cc2c(-c2ccc(N3CCN(C(C)C)CC3)cc2)n1` [Example A30, 4-[4-(4-isopropylpiperazin-1-yl)phenyl]-6-methyl-2-[(2-methyl-7-azaspiro[3.5]nonan-7-yl)methyl]-1H-pyrrolo[3,2-c]pyridine] the same measures were 100% and 100%.
For `CC(C)N1CCN(c2ccc(-c3nc(C4CC4)cc4[nH]c(CN5CCOCC5)cc34)cc2)CC1` [Example A33, 4-[[6-cyclopropyl-4-[4-(4-isopropylpiperazin-1-yl)phenyl]-1H-pyrrolo[3,2-c]pyridin-2-yl]methyl] morpholine], the inhibition at 1 µM under setting [2] turned out to be 83%.
The same measure, in the same setting: next, `CN1CCN(c2ccc(-c3nc(C4CC4)cc4[nH]c(CN5CCOCC5)cc34)cc2)CC1` [Example A34, 4-[[6-cyclopropyl-4-[4-(4-methylpiperazin-1-yl)phenyl]-1H-pyrrolo[3,2-c]pyridin-2-yl]methyl] morpholine]: 100%.
